SMILES strings stand for the structures. pIC50: −log10 of the molar value. Converted amounts (≈) assume the structure as drawn. The source made the active and inactive calls. No cut-off for these calls is given here. Where only a bound is given, the exact number is not on record here.

The test system of data set [1] is BaF3. Description: Cytotoxicity against mouse BA/F3 cells assessed as reduction in cell viability incubated for 48 hrs by brightglo-luciferase reporter gene assay. To be noted: BaF3, 48 h. In kind it is cell-based.
In data set [2] the target is Bcr/Abl fusion protein (Homo sapiens, UniProt P00519). Description: Inhibition of BCR/ABL (unknown origin) transfected in mouse Ba/F3 cells assessed as reduction in cell viability incubated for 48 hrs by brightglo-luciferase reporter gene assay. In kind it is cell-based, BaF3.
In data set [3] the test system is LC-2-ad. The data set is described as follows: Cytotoxicity against human LC2/ad cells assessed as reduction in cell viability incubated for 6 days by CellTiter Glo assay. In kind it is cell-based. To be noted: 144 h.
Data set [4] is described as follows: Aqueous solubility of compound at pH 6.8 incubated for 24 hrs by HPLC/UV analysis. In kind it is physicochemical.
Data set [5] is described as follows: AUC in BALB/c mouse at 5 mg/kg, iv measured upto 24 hrs by LC-MS/MS analysis. To be noted: in vivo. It counts as ADME, organism-based. Details: dose 5 mg/kg, time < 24 hr, route intravenous.
The nature of data set [6]: Cmax in BALB/c mouse at 5 mg/kg, iv measured upto 24 hrs by LC-MS/MS analysis. It counts as ADME, organism-based. To be noted: in vivo. Details: dose 5 mg/kg, route intravenous.
A short description of data set [7]: Half life in BALB/c mouse at 5 mg/kg, iv measured upto 24 hrs by LC-MS/MS analysis. To be noted: in vivo. It counts as ADME, organism-based.
Data set [8] can be described thus: Clearance in BALB/c mouse at 5 mg/kg, iv measured upto 24 hrs by LC-MS/MS analysis. In kind it is ADME, organism-based. To be noted: in vivo.
Data set [9] is described as follows: Volume of distribution at steady state in BALB/c mouse at 5 mg/kg, iv measured upto 24 hrs by LC-MS/MS analysis. It counts as ADME, organism-based. To be noted: in vivo, read-out: Vdss.
Data set [10] in a line: Toxicity in CD-1 mouse assessed as marginal zone depletion in spleen at 10 mg/kg, po qd for 4 weeks by histopathological analysis. To be noted: in vivo, 672 h. In kind it is organism-based.
Data set [11] is described as follows: Toxicity in CD-1 mouse assessed as neuronal changes in brain at 10 mg/kg, po qd for 4 weeks by histopathological analysis. In kind it is organism-based. To be noted: in vivo, 672 h.
Data set [12] in a line: Toxicity in CD-1 mouse assessed as changes in GI neurons at 10 mg/kg, po qd for 4 weeks by histopathological analysis. In kind it is organism-based. To be noted: in vivo, 672 h.
Data set [13] can be described thus: Toxicity in CD-1 mouse assessed as changes in lung at 10 mg/kg, po qd for 4 weeks by histopathological analysis. In kind it is organism-based. To be noted: in vivo, 672 h.
The nature of data set [14]: Toxicity in CD-1 mouse assessed as pancreatic vacuolation at 10 mg/kg, po qd for 4 weeks by histopathological analysis. In kind it is organism-based. To be noted: in vivo, 672 h.
Data set [15] can be described thus: Toxicity in CD-1 mouse assessed as decrease in germinal centre cellularity in lymph nodes at 10 mg/kg, po qd for 4 weeks by histopathological analysis. It counts as organism-based. To be noted: in vivo, 672 h.
The nature of data set [16]: Drug uptake in tumor of Harlan Foxn1 nude mouse xenografted with rat RIE cells transfected with KIF5B/RET at 3 to 30 mg/kg, po administered bid for 8 days by LC-MS/MS analysis. To be noted: in vivo, 192 h. In kind it is ADME, organism-based, Neoplasm.
Data set [17] is described as follows: Drug uptake in plasma of Harlan Foxn1 nude mouse xenografted with rat RIE cells transfected with KIF5B/RET at 3 to 30 mg/kg, po administered bid for 8 days by LC-MS/MS analysis. In kind it is ADME, organism-based. To be noted: in vivo, 192 h.
A short description of data set [18]: Oral bioavailability in BALB/c mouse at 20 mg/kg measured upto 24 hrs by LC-MS/MS analysis. It counts as ADME, organism-based. To be noted: in vivo.
A short description of data set [19]: AUC in BALB/c mouse at 20 mg/kg, po measured upto 24 hrs by LC-MS/MS analysis. It counts as ADME, organism-based. Details: dose 20 mg/kg, time < 24 hr, route oral. To be noted: in vivo.
A short description of data set [20]: Cmax in BALB/c mouse at 20 mg/kg, po measured upto 24 hrs by LC-MS/MS analysis. In kind it is ADME, organism-based. Details: dose 20 mg/kg, route oral. To be noted: in vivo.
Data set [21] in a line: Half life in BALB/c mouse at 20 mg/kg, po measured upto 24 hrs by LC-MS/MS analysis. In kind it is ADME, organism-based. To be noted: in vivo.
A short description of data set [22]: Ratio of AUC in BALB/c mouse brain to plasma at 20 mg/kg, po measured upto 24 hrs by LC-MS/MS analysis. In kind it is ADME, organism-based. To be noted: brain and plasma.
Data set [23] is described as follows: Ratio of Cmax in BALB/c mouse brain to plasma at 20 mg/kg, po measured upto 24 hrs by LC-MS/MS analysis. To be noted: brain and plasma. In kind it is ADME, organism-based.
Data set [24] has as its target T1, Voltage-gated inwardly rectifying potassium channel KCNH2 (Homo sapiens, UniProt Q12809). The data set is described as follows: Displacement of [3H]-dofetilide from human ERG expressed in CHO cells incubated for 90 mins by microbeta scintillation counting method. In kind it is cell-based.
The target in data set [25] is T1, Voltage-gated inwardly rectifying potassium channel KCNH2. Description: Inhibition of human ERG expressed in human embryonic kidney cells by manual patch clamp assay. To be noted: read-out: IC50. In kind it is cell-based.
Data set [26] relates to Rattus norvegicus. Description: Antitumor activity against rat RIE cells transfected with KIF5B/RET xenografted in Harlan Foxn1 nude mouse assessed as tumor regression at 30 mg/kg, po administered bid for 8 days. In kind it is functional, organism-based.
In data set [27] the test system is Rattus norvegicus. Description: Antitumor activity against rat RIE cells transfected with KIF5B/RET xenografted in Harlan Foxn1 nude mouse assessed as tumor stasis at 10 mg/kg, po administered bid for 8 days. In kind it is functional, organism-based.
In data set [28] the test system is Rattus norvegicus. The data set is described as follows: Antitumor activity against rat RIE cells transfected with KIF5B/RET xenografted in Harlan Foxn1 nude mouse assessed as inhibition of tumor growth at 3 mg/kg, po administered bid for 8 days. In kind it is functional, organism-based.
Data set [29] has as its system Mus musculus. The data set is described as follows: In vivo inhibition of KIF5B/RET transfected in rat RIE cells xenografted in Harlan Foxn1 nude mouse assessed as reduction in RET phosphorylation at 30 mg/kg, po administered bid for 8 days and measured on day 8 after 5 hrs of dosing by Western blot analysis. In kind it is functional, organism-based.
Data set [30] concerns Mus musculus. Description: In vivo inhibition of KIF5B/RET transfected in rat RIE cells xenografted in Harlan Foxn1 nude mouse assessed as reduction in RET phosphorylation at 30 mg/kg, po administered bid for 8 days and measured on day 8 after 24 hrs of dosing by Western blot analysis. In kind it is functional, organism-based.
A short description of data set [31]: Toxicity in Harlan Foxn1 nude mouse xenografted with rat RIE cells transfected with KIF5B/RET assessed as adverse events at 3 to 30 mg/kg, po administered bid for 8 days. In kind it is organism-based. To be noted: in vivo, 192 h.
Data set [32] deals with Rattus norvegicus. Description: Antitumor activity against rat RIE cells transfected with KIF5B/RET xenografted in Harlan Foxn1 nude mouse assessed as tumor regression at 10 to 60 mg/kg, po qd for 14 days. It counts as functional, organism-based.
Data set [33] has as its system Rattus norvegicus. The data set is described as follows: Antitumor activity against rat RIE cells transfected with KIF5B/RET xenografted in Harlan Foxn1 nude mouse assessed as reduction in visible vasculature at 10 to 60 mg/kg, po qd for 14 days. In kind it is functional, organism-based.
Data set [34] deals with Rattus norvegicus. Description: Antitumor activity against rat RIE cells transfected with KIF5B/RET xenografted in Harlan Foxn1 nude mouse assessed as tumor growth inhibition at 1 mg/kg, po qd for 10 days. In kind it is functional, organism-based.
Data set [35] deals with Rattus norvegicus. The data set is described as follows: Antitumor activity against rat RIE cells transfected with KIF5B/RET xenografted in Harlan Foxn1 nude mouse assessed as tumor stasis at 3 mg/kg, po qd for 10 days. In kind it is functional, organism-based.
Data set [36] deals with Rattus norvegicus. The data set is described as follows: Antitumor activity against rat RIE cells transfected with KIF5B/RET xenografted in Harlan Foxn1 nude mouse assessed as tumor regression at 10 mg/kg, po qd for 10 days. It counts as functional, organism-based.
For data set [37], the system named is Mus musculus. The data set is described as follows: In vivo inhibition of KIF5B/RET transfected in rat RIE cells xenografted in Harlan Foxn1 nude mouse assessed as reduction in intratumoral RET phosphorylation at 1 to 3 mg/kg, po qd for 10 days and measured after 5 hrs post-last dose by Western blot analysis. It counts as functional, organism-based.
For data set [38], the system named is LC-2-ad. The data set is described as follows: Antitumor activity against human LC2/ad cells xenografted in NSG mouse assessed as reduction in tumor volume at 10 mg/kg, po qd for 21 days measured following cessation of drug treatment. In kind it is functional, organism-based.
The test system of data set [39] is Mus musculus. The data set is described as follows: In vivo inhibition of KIF5B/RET transfected in rat RIE cells xenografted in Harlan Foxn1 nude mouse assessed as reduction in intratumoral RET phosphorylation at 1 to 3 mg/kg, po qd for 10 days and measured after 24 hrs post-last dose by Western blot analysis. In kind it is functional, organism-based.

Chain of Bcr/Abl fusion protein (P00519 whole entry, the tested form may be a part): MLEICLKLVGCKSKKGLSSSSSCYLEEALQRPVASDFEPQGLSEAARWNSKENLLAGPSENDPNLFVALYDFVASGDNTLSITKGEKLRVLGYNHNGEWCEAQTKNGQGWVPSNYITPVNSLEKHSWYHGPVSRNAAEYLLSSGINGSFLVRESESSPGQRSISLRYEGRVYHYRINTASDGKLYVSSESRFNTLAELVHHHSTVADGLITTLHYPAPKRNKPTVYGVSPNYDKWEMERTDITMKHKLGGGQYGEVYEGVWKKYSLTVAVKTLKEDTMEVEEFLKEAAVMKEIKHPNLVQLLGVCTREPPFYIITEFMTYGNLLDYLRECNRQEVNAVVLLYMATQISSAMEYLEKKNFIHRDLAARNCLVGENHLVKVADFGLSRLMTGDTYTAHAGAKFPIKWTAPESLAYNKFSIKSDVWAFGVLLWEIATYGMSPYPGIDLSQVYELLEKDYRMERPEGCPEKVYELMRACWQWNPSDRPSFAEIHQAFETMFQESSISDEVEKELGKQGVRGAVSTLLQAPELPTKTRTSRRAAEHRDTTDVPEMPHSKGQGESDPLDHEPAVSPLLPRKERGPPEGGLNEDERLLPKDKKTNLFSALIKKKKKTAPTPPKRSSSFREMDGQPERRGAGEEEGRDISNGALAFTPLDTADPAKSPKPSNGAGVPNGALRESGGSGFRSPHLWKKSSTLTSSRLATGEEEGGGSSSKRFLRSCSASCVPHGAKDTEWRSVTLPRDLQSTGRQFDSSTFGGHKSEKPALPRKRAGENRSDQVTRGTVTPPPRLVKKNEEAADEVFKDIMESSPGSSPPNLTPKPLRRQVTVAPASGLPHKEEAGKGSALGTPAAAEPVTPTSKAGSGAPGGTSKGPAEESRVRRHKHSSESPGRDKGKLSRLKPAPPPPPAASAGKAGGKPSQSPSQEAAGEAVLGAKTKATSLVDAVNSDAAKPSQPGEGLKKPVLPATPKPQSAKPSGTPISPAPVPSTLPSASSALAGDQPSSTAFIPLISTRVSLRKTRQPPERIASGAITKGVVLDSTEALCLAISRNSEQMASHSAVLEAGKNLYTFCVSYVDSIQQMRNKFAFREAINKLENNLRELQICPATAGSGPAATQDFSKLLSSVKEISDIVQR
Chain of Bcr/Abl fusion protein (P11274 whole entry, further chain, the tested form may be a part): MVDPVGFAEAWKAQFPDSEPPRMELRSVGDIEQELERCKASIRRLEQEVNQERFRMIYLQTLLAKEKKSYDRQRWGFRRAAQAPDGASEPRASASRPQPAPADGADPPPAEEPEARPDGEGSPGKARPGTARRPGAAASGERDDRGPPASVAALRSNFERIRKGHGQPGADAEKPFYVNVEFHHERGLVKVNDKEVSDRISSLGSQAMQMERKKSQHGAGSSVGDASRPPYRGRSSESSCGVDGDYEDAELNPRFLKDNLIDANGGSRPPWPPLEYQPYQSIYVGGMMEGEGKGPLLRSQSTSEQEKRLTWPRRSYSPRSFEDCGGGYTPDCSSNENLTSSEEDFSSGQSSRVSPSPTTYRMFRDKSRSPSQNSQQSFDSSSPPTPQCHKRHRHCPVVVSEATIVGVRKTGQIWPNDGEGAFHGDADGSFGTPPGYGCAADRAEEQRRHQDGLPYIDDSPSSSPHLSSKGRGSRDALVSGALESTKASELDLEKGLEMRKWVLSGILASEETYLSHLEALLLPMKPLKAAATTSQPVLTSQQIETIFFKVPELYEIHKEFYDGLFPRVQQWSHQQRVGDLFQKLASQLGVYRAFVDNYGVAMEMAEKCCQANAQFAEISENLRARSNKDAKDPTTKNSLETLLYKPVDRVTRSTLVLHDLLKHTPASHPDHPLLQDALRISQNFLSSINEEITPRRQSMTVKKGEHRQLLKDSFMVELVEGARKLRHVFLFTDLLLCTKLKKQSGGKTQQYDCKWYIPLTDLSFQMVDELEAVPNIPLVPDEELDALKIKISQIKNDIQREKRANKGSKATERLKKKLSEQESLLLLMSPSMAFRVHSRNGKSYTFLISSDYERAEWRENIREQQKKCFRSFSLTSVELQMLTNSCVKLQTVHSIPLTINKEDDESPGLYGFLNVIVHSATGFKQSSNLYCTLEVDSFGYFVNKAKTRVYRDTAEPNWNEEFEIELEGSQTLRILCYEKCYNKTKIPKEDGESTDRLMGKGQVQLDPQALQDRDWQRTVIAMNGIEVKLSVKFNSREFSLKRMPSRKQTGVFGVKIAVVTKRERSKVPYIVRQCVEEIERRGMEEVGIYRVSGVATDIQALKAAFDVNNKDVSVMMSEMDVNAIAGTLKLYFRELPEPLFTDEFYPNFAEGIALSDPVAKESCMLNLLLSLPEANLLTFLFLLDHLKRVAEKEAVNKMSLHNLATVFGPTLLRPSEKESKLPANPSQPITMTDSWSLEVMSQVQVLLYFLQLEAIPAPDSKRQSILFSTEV
T1 sequence (Q12809 whole entry): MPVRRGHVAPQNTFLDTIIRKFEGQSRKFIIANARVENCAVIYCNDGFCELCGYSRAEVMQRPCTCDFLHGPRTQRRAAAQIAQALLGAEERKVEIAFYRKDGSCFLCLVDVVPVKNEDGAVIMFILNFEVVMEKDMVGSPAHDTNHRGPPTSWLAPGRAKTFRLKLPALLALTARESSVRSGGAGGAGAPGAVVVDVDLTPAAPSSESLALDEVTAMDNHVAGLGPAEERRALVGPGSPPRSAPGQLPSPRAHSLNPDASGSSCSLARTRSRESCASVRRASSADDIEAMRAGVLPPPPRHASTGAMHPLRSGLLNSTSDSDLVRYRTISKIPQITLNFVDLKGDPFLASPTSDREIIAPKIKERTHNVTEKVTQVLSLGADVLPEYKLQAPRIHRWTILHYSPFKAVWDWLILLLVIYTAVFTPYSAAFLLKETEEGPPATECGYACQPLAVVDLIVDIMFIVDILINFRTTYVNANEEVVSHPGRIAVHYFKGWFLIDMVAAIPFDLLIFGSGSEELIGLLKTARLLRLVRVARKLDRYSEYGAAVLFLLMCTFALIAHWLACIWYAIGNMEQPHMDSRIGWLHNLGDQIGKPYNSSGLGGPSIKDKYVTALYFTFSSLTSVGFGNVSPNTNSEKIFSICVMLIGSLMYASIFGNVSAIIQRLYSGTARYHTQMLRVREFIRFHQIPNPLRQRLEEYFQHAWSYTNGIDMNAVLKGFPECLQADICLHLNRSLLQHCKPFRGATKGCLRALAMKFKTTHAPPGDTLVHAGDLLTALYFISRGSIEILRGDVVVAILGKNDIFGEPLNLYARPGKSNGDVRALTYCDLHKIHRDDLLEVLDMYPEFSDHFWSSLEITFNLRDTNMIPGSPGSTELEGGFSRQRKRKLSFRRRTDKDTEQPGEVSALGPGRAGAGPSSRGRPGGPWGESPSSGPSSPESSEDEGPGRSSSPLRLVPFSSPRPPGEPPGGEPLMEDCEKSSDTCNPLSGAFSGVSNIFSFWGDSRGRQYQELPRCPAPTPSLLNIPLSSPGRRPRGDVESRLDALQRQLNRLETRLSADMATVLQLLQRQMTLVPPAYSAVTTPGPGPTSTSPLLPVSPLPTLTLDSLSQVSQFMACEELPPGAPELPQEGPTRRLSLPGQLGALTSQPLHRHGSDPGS

On to `COc1ccc(-c2cnn3c(N)c(-c4nccs4)c(OC4CCN(C)CC4)nc23)cc1OC`, for which the pIC50 in data set [1] was less than 4.96; in data set [2], less than 5.00.
The matching figures for `COC(=O)Nc1ccc(-c2c(OC3CCN(C)CC3)nc3c(-c4ccc(OC)c(OC)c4)cnn3c2N)cc1`: 5.30 and 5.29.
As to `COc1ccc(-c2cnn3c(N)c(-c4ccccc4)c(OC4CCN(C)CC4)nc23)cc1OC`, the pIC50 in data set [1] was less than 4.96; in data set [2], 6.06; in data set [3], 5.80. In [4], this compound yielded a solubility at 24 h of 7.1 µM (≈ 3.26 µg/mL).
`COc1ccc(-c2cnn3c(N)c(-c4ccccc4)c(NC4CC(C)(C)N(C)C(C)(C)C4)nc23)cc1OC` [listing 1 of 2 here] yielded an AUC at 24 h in [5] of 3.2 µM·h. For the same compound, in data set [6], the Cmax is 1100 nM. The compound further showed a half-life in data set [7] of 3.9 h. This compound came in with a clearance in data set [8] of 51 mL/min/kg. Besides, the Vd in data set [9] worked out at 13 L/kg. The pIC50 in data set [3] was 5.82. In [4], this compound registered a solubility at 24 h of 48 µM (≈ 24.7 µg/mL). The Activity result in [10] is “Toxic”; in data set [11], “Non-Toxic”; in data set [12] it was “Non-Toxic”; in data set [13], “Non-Toxic”; in data set [14], “Toxic”; in [15] it was “Toxic”.
Turning to `CN1C(C)(C)CC(Nc2nc3c(-c4ccc(C(=O)N5C[C@@H]6C[C@H]5CO6)cc4)cnn3c(N)c2-c2ccccc2)CC1(C)C`, the Drug uptake entry in data set [16] and in data set [17] was “Active” throughout. In addition, the bioavailability in [18] amounted to 64%. For the same compound, the AUC at 24 h in data set [19] came to 6.8 µM·h; in data set [5], 2.6 µM·h. Moreover, the Cmax stood at 880 nM in data set [20] and 1600 nM in data set [6]. In addition, the values for the half-life in data set [21] and in data set [7] were 2.5 h and 1.8 h, respectively. This compound also registered a clearance in data set [8] of 54 mL/min/kg. Further, in data set [9], the Vd was found to be 7.8 L/kg. In addition, the pIC50 was 5.47 in data set [3], 5.33 in data set [24] and 5.55 in data set [25]. For the same compound, the Kp at 24 h in [22] was determined as 0.15; in data set [23], 0.13. Moreover, the result in [26], in [27] and in [28] was Active. Moreover, the inhibition entry in data set [29] is “Active”. Further, in data set [30], the inhibition result is “inactive”. Further, the Activity entry in data set [31] was “Non-Toxic”.
Consider `COc1ccc(-c2cnn3c(N)c(-c4ccccc4)c(NC4CC(C)(C)N(C)C(C)(C)C4)nc23)cc1OC` [listing 2 of 2 here], for which the outcome in [32], in [33], in [34], in data set [35], in data set [36] and in [38] was Active. The inhibition entry in data set [37] was “Active”. The inhibition result in data set [39] was “inactive”.

The values above are taken from ChEMBL document CHEMBL4602715, “Efficacy and Tolerability of Pyrazolo[1,5-a]pyrimidine RET Kinase Inhibitors for the Treatment of Lung Adenocarcinoma” (ACS Med Chem Lett, 2020).
